Measured values from patent publication US10660910B2, “Use of sedoheptulose for prevention or treatment of inflammation” (C7 SUGAR GMBH, priority 2013, dated 2020).

How the values were obtained:
[1] = Glucose and sedoheptulose measurement in human serum before and after carrot meal (GC-MS); format: in vivo; details: humans, two hours after a meal of mainly steamed carrots (~700 g per male adult) vs overnight fasted, n=4, FIG. 1B
Excerpt: Fresh carrots with an Austrian “organic-certificate” were sliced into small pieces and snap-frozen in liquid nitrogen. The same procedure was applied to leaves freshly harvested from indoor-grown Sedum Spectabile plants. Three samples of each tissue were pooled and homogenized to powder by glass-beads. The carbohydrate rich fractions of the samples were isolated by 20% H2O and 80% MeOH extraction solution spiked with 13 C standards and processed for standard gas-chromatography coupled to mass spectrometry (GC-MS). Glucose and sedoheptulose were identified by their individual masses and their relative amount was derived from the peak area of each individual analyte normalized to 13 C content. Glucose and sedoheptulose were also measured in equal volumes of serum from overnight fasted or carrot fed individuals. The carrots were steamed and some olive-oil, salt and pepper were used for flavour. Two hours before and two hours after the carrot containing meal human serum was prepared in VACUETTE® Z Serum Sep tubes from blood. Serum samples were processed as previously described and also analyzed by GC-MS as detailed above and in Ruiz-Matute AI et al., Chromatogr B Analyt Technol Biomed Life Sci. (2011) May 15 879(17-18).

[2] = system: primary human adipocytes; assay: Human adipocyte culture in GF or GFS media, gene expression by RT-PCR; format: cell-based
Method: Stromal vascular fraction cells (SVFs) from subcutaneous white adipose tissue of a patient undergoing abdominal surgery were isolated as described before (Lindroos et al, Cell Metab. (2013), July 2; 18(1):62-74.). Briefly, adipose tissue was digested with Collagenase II (Worthington) and filtered. SVFs were separated from mature adipocytes by centrifugation, followed by the lysis of erythrocytes in the SVF-fraction (Buffer EL, Qiagen). The purified SVFs were cultured in DMEM/F12, 10% FBS (Gibco, Life Technologies). As soon as the cells reached confluence, they were washed with DMEM/F12 w/o glucose (Biowest) and the medium was replaced by DMEM/F12 with a total carbohydrate load of 3 g/L, containing 1.5 g/L glucose and fructose or 1 g/L each of glucose, fructose, and sedoheptulose, respectively. Two days after confluence (day 0), differentiation was induced by adding 1 μM dexamethasone, 1.74 μM insulin, 5 μM troglitazone, […], 17 μM pantothenic acid and 33 μM biotin. After two days, IBMX and dexamethasone were omitted, while insulin and troglitazone were removed on day 4. 50% of the medium was replaced on day 6. Two days later, the cells were harvested for RNA isolation (RNeasy mini kit, Qiagen).
Briefly, total RNA was extracted and reverse-transcribed using commercial kits (QIAGEN, Applied Biosystems). Quantitative real-time PCRs were performed on an AbiPRISM 7900HT real-time cycler using iTaq SYBR Green Supermix with ROX (BioRad) to measure CARKL, adiponectin, UCP-1, TNFa, IL-6, MCP-1, and beta-actin expression as previously described (Haschemi et al., Cell Metab. 15 (2012), 813-826). Expression of target gene was normalized to beta-actin expression. Relative expression of target gene was calculated by the delta-delta CT method.

[3] = system: LPS-induced activated primary macrophages; assay: LPS-induced cytokine secretion by bone marrow derived macrophages (ELISA); format: cell-based, mouse; details: LPS 100 ng/ml, GFS vs GF media
Method: FIG. 3: (A-E) Primary human adipocytes were obtained by differentiation of the stromal vascular cell fraction in the presence of glucose and fructose (GF, 1.5 g/L of each sugar; total carbohydrates 3 g/L) or sedoheptulose supplemented media, which was termed GFS (1 g/L of each sugar; total carbohydrates 3 g/L), for eight days. Subsequently mRNA levels of (A) CARKL, (B) adiponectin and (C) uncoupling protein 1 (UCP-1) was assessed by RT-PCR and compared between the groups. (D) Cellular oxygen consumption rates (OCR) and (E) extracellular acidification rates (ECAR) of adipocytes were recorded in the presence of indicated carbohydrate-mix (mean+/−S.D., n=9-11). […] Secretion of (K) TNFa and (L) IL-6 cytokines over the period of two days was measured by ELISA in the supernatant of bone marrow derived macrophages. LPS-induced (100 ng/ml) secretion of (M) TNFa 2 hrs after activation and (N) IL-6 6 hrs after activation in the respective media by macrophages was also measured by ELISA. […]

[4] = system: osteoclasts; assay: In vitro bone resorption assay; format: cell-based, mouse
Method: Mouse bones were isolated from male wild-type and CARKL overexpressing mice and bone marrow wash flushed, washed and cleared from redblood cells by lysis, and subsequently differentiated in DMEM containing 25 mM glucose and 20 ng/ml M-CSF. After 4 days, cells for osteoclast differentiation were harvested and seeded in corning osteo assay plates with differentiation media (see below), and for primary bone marrow derived macrophages (BMDM) the medium was renewed and further supplemented with M-SCF for two days. Differentiated BMDM were then seeded in respective DMEM-media containing 10% FBS and indicated carbohydrate mixes at 3 g/L (glucose and fructose (GF), or glucose, fructose and sedoheptulose (GFS)) at least two days before experiments were performed. Osteoclast precursor cells (bone marrow cells treated with 20 ng/ml M-CSF for 4 days) were plated in 24-well Corning Osteo Assay plate in the presence of 10 ng/ml M-CSF and 100 ng/ml RANKL in alpha-MEM medium containing 10% FBS and 3 g/L either glucose and fructose (GF), or glucose, fructose, and sedoheptulose (GFS). The Medium was renewed every third day. […] Each well was entirely photographed by TissueFax with an ×20 objective and all visible resorption pits were counted and analysed blinded.

O=C(CO)[C@@H](O)[C@H](O)[C@H](O)[C@H](O)CO [sedoheptulose, Sedoheptulose]
increase in sedoheptulose serum levels [1]: approximately two-fold | sedoheptulose kinase CARKL mRNA expression ([2]; GFS media (1 g/L each glucose, fructose, sedoheptulose) vs GF (1.5 g/L each), eight days differentiation, FIG. 3A): increase | adiponectin expression ([2]; GFS vs GF treated cells, eight days, FIG. 3B): increase | UCP-1 expression ([2]; GFS vs GF treated cells, eight days, FIG. 3C): increase | reduction of LPS-induced TNFa secretion ([3]; 2 hrs after activation, FIG. 3M): approximately 40% | LPS-induced IL-6 secretion ([3]; 6 hrs after activation, FIG. 3N): comparable levels as GF treated macrophages | pit formation by osteoclasts ([4]; 7 days in Corning Osteo Assay plates, GFS vs GF media, FIG. 5C): reduced | larger resorption-pits ([4]; WT osteoclasts in GF or GFS media, FIG. 5D): found only in the absence of sedoheptulose
